According to patent US9920010B2, “CXCR7 receptor modulators” (IDORSIA PHARMACEUTICALS LTD, priority 2013, dated 2018):
pEC50: −log10 of the molar value.

Target: T1, CXCR7 (Homo sapiens, UniProt P25106)
T1 construct: host or cells: CHO-K1 (PathHunter CHO-K1 CXCR7 b-arrestin cell line, stably transfected)
Assay: PathHunter CHO-K1 CXCR7 b-arrestin recruitment assay (CXCR7 agonistic activity)
Format: cell-based
Conditions: PathHunter CHO-K1 CXCR7 b-arrestin cell line
In short: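 Stable CHO-K1 line with C-terminally ProLink-tagged CXCR7 and β-arrestin 2–EA fusion; β-arrestin recruitment restores β-gal activity, read by chemiluminescence after 1 h RT detection. Cells seeded 24 h, starved in OPTIMEM 3–4 h, exposed to compounds 90 min at 37 °C in HBSS/HEPES/BSA. Geometric-mean EC50 from repeated measurements.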

T1 sequence (P25106 whole entry): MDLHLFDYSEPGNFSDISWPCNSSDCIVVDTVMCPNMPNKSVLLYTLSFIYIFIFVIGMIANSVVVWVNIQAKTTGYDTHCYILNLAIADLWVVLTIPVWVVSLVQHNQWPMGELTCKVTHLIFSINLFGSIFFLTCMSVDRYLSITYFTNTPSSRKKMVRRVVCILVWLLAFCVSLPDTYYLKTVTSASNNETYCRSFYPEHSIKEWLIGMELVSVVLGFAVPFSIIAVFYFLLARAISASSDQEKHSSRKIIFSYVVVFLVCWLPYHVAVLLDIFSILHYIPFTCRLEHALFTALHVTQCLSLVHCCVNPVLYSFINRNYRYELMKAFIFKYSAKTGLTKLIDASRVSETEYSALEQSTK
T1 sequence (P32121 whole entry partner): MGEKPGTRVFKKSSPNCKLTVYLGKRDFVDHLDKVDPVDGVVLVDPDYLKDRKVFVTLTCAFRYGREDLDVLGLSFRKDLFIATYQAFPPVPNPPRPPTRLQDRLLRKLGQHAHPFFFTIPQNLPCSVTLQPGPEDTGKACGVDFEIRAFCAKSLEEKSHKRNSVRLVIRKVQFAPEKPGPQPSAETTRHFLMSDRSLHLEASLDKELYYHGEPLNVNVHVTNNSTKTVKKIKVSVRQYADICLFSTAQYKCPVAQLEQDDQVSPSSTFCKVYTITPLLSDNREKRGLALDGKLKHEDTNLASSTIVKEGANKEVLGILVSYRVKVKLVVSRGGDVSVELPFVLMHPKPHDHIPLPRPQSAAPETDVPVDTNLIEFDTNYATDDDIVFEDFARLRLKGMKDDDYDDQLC

Structure (SMILES)	pEC50
CCN1CCc2cccc(NCC(=O)N(CCN(C)C)C(C)c3ccccc3C(F)(F)F)c2C1 (racemic) [compound 522]	6.85
COCCN1CCc2c(/C=C/C(=O)N(CCC(C)(C)O)Cc3ccccc3C(F)(F)F)cccc2C1 [Example 325, (E)-N-(3-Hydroxy-3-methyl-butyl)-3-[2-(2-methoxy-ethyl)-1,2,3,4-tetrahydro-isoquinolin-5-yl]-N-(2-trifluoromethyl-benzyl)-acrylamide]	6.48
CCN1CCc2cccc(NCC(=O)N(CCN(C)C)Cc3ccc(C(F)(F)F)cc3)c2C1 [compound 506]	6.81
CN(C)CCN(CCc1ccccc1C(F)(F)F)C(=O)CNc1cccc2c1CCN(CC1CC1)C2 [Example 57, 2-(2-Cyclopropylmethyl-1,2,3,4-tetrahydro-isoquinolin-5-ylamino)-N-(2-dimethylamino-ethyl)-N-[2-(2-trifluoromethyl-phenyl)-ethyl]-acetamide]	7.62
CN(C)CCN(Cc1ccccc1C(F)(F)F)C(=O)CNc1cccc2c1CCN(C(=O)[C@@H]1C[C@@H]1F)C2 (single isomer, unassigned) [Example 363b, N-(2-Dimethylamino-ethyl)-2-[2-((1 S*,2S*)-2-fluoro-cyclopropanecarbonyl)-1,2,3,4-tetrahydro-isoquinolin-5-ylamino]-N-(2-trifluoromethyl-benzyl)-acetamide]	8.30
O=C(CNc1cccc2c1CCN(CC1CC1)C2)N(CCN1CCNC1=O)Cc1ccccc1C(F)(F)F [Example 79, 2-(2-Cyclopropylmethyl-1,2,3,4-tetrahydro-isoquinolin-5-ylamino)-N-[2-(2-oxo-imidazolidin-1-yl)-ethyl]-N-(2-trifluoromethyl-benzyl)-acetamide]	6.87
CN(C)CCN(Cc1ccccc1C(F)(F)F)C(=O)CNc1cccc2c1CN(C(=O)N(C)C)CC2 [Example 546, 8-({[(2-Dimethylamino-ethyl)-(2-trifluoromethyl-benzyl)-carbamoyl]-methyl}-amino)-3,4-dihydro-1H-isoquinoline-2-carboxylic acid dimethylamide]	8.10
O=C(CNc1cccc2c1CCN(CC1CC1)C2)N(Cc1ccccc1C(F)(F)F)C[C@@H]1CCNC1 [compound 379]	8.52
COCCN1CCc2c(cccc2NCC(=O)N(CCN(C)C)Cc2ccccc2C(F)(F)F)C1 [Example 359, N-(2-(dimethylamino)ethyl)-2-((2-(2-methoxyethyl)-1,2,3,4-tetrahydroisoquinolin-5-yl)amino)-N-(2-(trifluoromethyl)benzyl)acetamide]	8.05
CN(CCN(Cc1ccccc1C(F)(F)F)C(=O)CNc1cccc2c1CCN(CC1CC1)C2)C1CCCC1 [compound 451, N-[2-(Cyclopentyl-methyl-amino)-ethyl]-2-(2-cyclopropylmethyl-1,2,3,4-tetrahydro-isoquinolin-5-ylamino)-N-(2-trifluoromethyl-benzyl)-acetamide]	9.00
CC(C1CC1)N1CCc2c(cccc2NCC(=O)N(CCN(C)C)Cc2ccccc2C(F)(F)F)C1 (stereo not shown) [Example 357, 2-[2-(1-Cyclopropyl-ethyl)-1,2,3,4-tetrahydro-isoquinolin-5-ylamino]-N-(2-dimethylamino-ethyl)-N-(2-trifluoromethyl-benzyl)-acetamide]	8.40
CN(C)CCN(CCc1ccccc1)C(=O)Cc1cccc2c1CCN(CC1CC1)C2 [Example 2, 2-(2-Cyclopropylmethyl-1,2,3,4-tetrahydro-isoquinolin-5-yl)-N-(2-dimethylamino-ethyl)-N-phenethyl-acetamide]	6.84
Cc1ccc2c(c1NCC(=O)N(CCN(C)C)Cc1ccccc1C(F)(F)F)CCN(CC1CC1)C2 [Example 290, 2-(2-Cyclopropylmethyl-6-methyl-1,2,3,4-tetrahydro-isoquinolin-5-ylamino)-N-(2-dimethylamino-ethyl)-N-(2-trifluoromethyl-benzyl)-acetamide]	8.30
CCC(=O)N1CCc2c(cccc2NCC(=O)N(CCNC)Cc2ncccc2C(F)(F)F)C1 [compound 409, N-(2-Methylamino-ethyl)-2-(2-propionyl-1,2,3,4-tetrahydro-isoquinolin-5-ylamino)-N-(3-trifluoromethyl-pyridin-2-ylmethyl)-acetamide]	8.10
CCN1CCc2cccc(NCC(=O)N(CCN3CCCC3)Cc3ccccc3)c2C1 [compound 509, N-Benzyl-2-(2-ethyl-1,2,3,4-tetrahydro-isoquinolin-8-ylamino)-N-(2-pyrrolidin-1-yl-ethyl)-acetamide]	7.44
CCCC(=O)N1CCc2c(cccc2NCC(=O)N(CCN(C)C)Cc2ccccc2)C1 [compound 114, N-Benzyl-2-(2-butyryl-1,2,3,4-tetrahydro-isoquinolin-5-ylamino)-N-(2-dimethylamino-ethyl)-acetamide]	7.44
CNCCN(Cc1ncccc1C(F)(F)F)C(=O)CNc1cccc2c1CCN(C(C)=O)C2 [compound 408, 2-(2-Acetyl-1,2,3,4-tetrahydro-isoquinolin-5-ylamino)-N-(2-methylamino-ethyl)-N-(3-trifluoromethyl-pyridin-2-ylmethyl)-acetamide]	8.00

Structure (SMILES)	pEC50
CC(C)(O)CN(Cc1ncccc1Cl)C(=O)CNc1cccc2c1CN(C1CCC1)CC2 [compound 457]	6.63
CCC(=O)N1CCc2c(cccc2NCC(=O)N(CCN(C)C)Cc2ccccc2F)C1 [Example 23, N-(2-Dimethylamino-ethyl)-N-(2-fluoro-benzyl)-2-(2-propionyl-1,2,3,4-tetrahydro-isoquinolin-5-ylamino)-acetamide]	7.80
CN(C)CCN(Cc1ccccc1C(F)(F)F)C(=O)CNc1cccc2c1CCN(c1nc(C(F)(F)F)cs1)C2 [Example 376, N-(2-Dimethylamino-ethyl)-N-(2-trifluoromethyl-benzyl)-2-[2-(4-trifluoromethyl-thiazol-2-yl)-1,2,3,4-tetrahydro-isoquinolin-5-ylamino]-acetamide]	7.57
CN(C)CCN(Cc1ccccc1C(F)(F)F)C(=O)CNc1cccc2c1CCN(C(=O)[C@H]1C[C@H]1F)C2 (single isomer, unassigned) [Example 363a, N-(2-Dimethylamino-ethyl)-2-[2-((1R*,2R*)-2-fluoro-cyclopropanecarbonyl)-1,2,3,4-tetrahydro-isoquinolin-5-ylamino]-N-(2-trifluoromethyl-benzyl)-acetamide]	8.22
CC(C)(O)CN(Cc1ccccc1C(F)(F)F)C(=O)CNc1cccc2c1CCN(CC1CC1)C2 [Example 241, 2-(2-Cyclopropylmethyl-1,2,3,4-tetrahydro-isoquinolin-5-ylamino)-N-(2-hydroxy-2-methyl-propyl)-N-(2-trifluoromethyl-benzyl)-acetamide]	8.10
C=CCN(C)CCN(Cc1ccccc1C(F)(F)F)C(=O)CCc1cccc2c1CCN(CC=C)C2 [Example 348, N-[2-(Allyl-methyl-amino)-ethyl]-3-(2-allyl-1,2,3,4-tetrahydro-isoquinolin-5-yl)-N-(2-trifluoromethyl-benzyl)-propionamide]	7.89
CNCCN(Cc1ccccc1C(F)(F)F)C(=O)CNc1cccc2c1CCN(C(=O)OCC(C)C)C2 [compound 401]	6.60
CN(C)CCN(Cc1ccccc1C(F)(F)F)C(=O)CNc1ccc(Cl)c2c1CCN(CC1CC1)C2 [Example 287, 2-(8-Chloro-2-cyclopropylmethyl-1,2,3,4-tetrahydro-isoquinolin-5-ylamino)-N-(2-dimethylamino-ethyl)-N-(2-trifluoromethyl-benzyl)-acetamide]	6.82
CN1CCC(N(Cc2ccccc2C(F)(F)F)C(=O)/C=C/c2cccc3c2CCN(C(=O)OC(C)(C)C)C3)CC1 [Example 96, 5-{(E)-2-[(1-Methyl-piperidin-4-yl)-(2-trifluoromethyl-benzyl)-carbamoyl]-vinyl}-3,4-dihydro-1H-isoquinoline-2-carboxylic acid tert-butyl ester]	6.60
CN(C)CCN(Cc1ccccc1C(F)(F)F)C(=O)CNc1cccc2c1CCN(C1COC1)C2 [Example 353, N-(2-Dimethylamino-ethyl)-2-(2-oxetan-3-yl-1,2,3,4-tetrahydro-isoquinolin-5-ylamino)-N-(2-trifluoromethyl-benzyl)-acetamide]	7.07
Cc1cccnc1CN(CCN(C)C)C(=O)CNc1cccc2c1CCN(CC1CC1)C2 [Example 256, 2-(2-Cyclopropylmethyl-1,2,3,4-tetrahydro-isoquinolin-5-ylamino)-N-(2-dimethylamino-ethyl)-N-(3-methyl-pyridin-2-ylmethyl)-acetamide]	7.96
O=C(/C=C/c1cccc2c1CCN(CC1CC1)C2)N(CCc1ccc(F)cc1)Cc1ccccc1 [compound 148]	7.27
CCN1Cc2c(NCC(=O)N(CCN(C)C)Cc3ccccc3C(F)(F)F)cccc2C(C)(C)C1 [compound 198]	6.41
CN1CCC(N(Cc2ccccc2C(F)(F)F)C(=O)CCc2cccc3c2CCN(C(=O)OC(C)(C)C)C3)CC1 [Example 100, 5-{2-[(1-Methyl-piperidin-4-yl)-(2-trifluoromethyl-benzyl)-carbamoyl]-ethyl}-3,4-dihydro-1H-isoquinoline-2-carboxylic acid tert-butyl ester]	6.42
CCN1CCc2cccc(NCC(=O)N(CCN(C)C)Cc3ccccc3C(F)(F)F)c2C1 [compound 555, N-(2-Dimethylamino-ethyl)-2-(2-ethyl-1,2,3,4-tetrahydro-isoquinolin-8-ylamino)-N-(2-trifluoromethyl-benzyl)-acetamide]	8.22
CC(CF)N(C)CCN(Cc1ccccc1C(F)(F)F)C(=O)CNc1cccc2c1CCN(CC1CC1)C2 (racemic) [compound 452]	8.40
CCC(=O)N1CCc2c(cccc2OCC(=O)N(CCN(C)C)Cc2ccccc2)C1 [compound 169, N-Benzyl-N-(2-dimethylamino-ethyl)-2-(2-propionyl-1,2,3,4-tetrahydro-isoquinolin-5-yloxy)-acetamide]	7.38
